From US10851083B2, “Benzoimidazoles as prolyl hydroxylase inhibitors” (Janssen Pharmaceutica NV, priority 2008, dated 2020) come the findings set out here.

One experiment addresses human PHD2181-417 (Homo sapiens (Human), UniProt Q9GZT9). The experiment is described as follows: PHD2 enzyme activity assay ([14C]-succinic acid production).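 Also: reaction ran 10 min with compound in Tris pH 7.5 buffer with catalase, DTT and ascorbate, labelled succinate freed of leftover 2-oxoglutarate by DNP precipitation, then beta counted.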 It counts as biochemical. To be noted: PHD2181-417 polypeptide, HIF-1α peptide 10 μM, [5-14C]-2-oxoglutaric acid; 30 min pre-incubation; tested 10 μM to 3 nM.
Another experiment deals with Hep-3B cells. The experiment in a line: Cellular assay: EPO secretion in Hep-3B cells. Type of experiment: cell-based, human. Also noted: EPO secretion, % of control compound: dose or concentration left out as unconfirmed. The conditions noted are these: Homo sapiens, Hep3B, 24 h, EPO secretion as percentage of control compound 7-[(4-Chloro-phenyl)-(5-methyl-isoxazol-3-ylamino)-methyl]-quinolin-8-ol, read-out: Cellular % EPO Stimulation.

human PHD2181-417, sequence (Q9GZT9 181-417): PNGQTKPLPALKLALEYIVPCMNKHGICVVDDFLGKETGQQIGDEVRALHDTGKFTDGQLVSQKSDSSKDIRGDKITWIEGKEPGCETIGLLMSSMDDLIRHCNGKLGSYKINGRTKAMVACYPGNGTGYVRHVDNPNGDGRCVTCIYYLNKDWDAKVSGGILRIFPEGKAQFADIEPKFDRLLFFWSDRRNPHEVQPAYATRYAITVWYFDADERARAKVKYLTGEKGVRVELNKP

`COc1ccc(Sc2cc3nc(-n4cc(C(=O)O)cn4)[nH]c3cc2C(F)(F)F)cc1` [Example 160, 1-[5-(4-Methoxy-phenylsulfanyl)-6-trifluoromethyl-1H-benzoimidazol-2-yl]-1H-pyrazole-4-carboxylic Acid]: the “Enzyme pIC50” value at human PHD2181-417 was 7.5. In addition, the EPO secretion, % of control compound in the experiment with Hep-3B cells turned out to be 36.1%.
On to `O=C(O)c1cnn(-c2nc3cc(S(=O)(=O)c4ccccc4)c(C(F)(F)F)cc3[nH]2)c1` [Example 161, 1-(5-Benzenesulfonyl-6-trifluoromethyl-1H-benzoimidazol-2-yl)-1H-pyrazole-4-carboxylic Acid], for which, at human PHD2181-417, the “Enzyme pIC50” value is listed as 7.6. Further, the EPO secretion, % of control compound in the experiment on Hep-3B cells was 98.2%.
The matching figures for `COc1ccc(S(=O)(=O)c2cc3nc(-n4cc(C(=O)O)cn4)[nH]c3cc2C(F)(F)F)cc1` [Example 162, 1-[5-(4-Methoxy-benzenesulfonyl)-6-trifluoromethyl-1H-benzoimidazol-2-yl]-1H-pyrazole-4-carboxylic Acid]: 7.6 and 45.8%.
The matching figures for `O=C(O)c1cnn(-c2nc3cc(SCc4ccc(Cl)cc4)c(Cl)cc3[nH]2)c1` [Example 163, 1-[6-Chloro-5-(4-chloro-benzylsulfanyl)-1H-benzoimidazol-2-yl]-1H-pyrazole-4-carboxylic Acid]: 6.5 and 37%.
The matching figures for `O=C(O)c1cnn(-c2nc3cc(SCc4cccc(Cl)c4)c(Cl)cc3[nH]2)c1` [Example 164, 1-[6-Chloro-5-(3-chloro-benzylsulfanyl)-1H-benzoimidazol-2-yl]-1H-pyrazole-4-carboxylic Acid]: 6.6 and 27.4%.
As to `O=C(O)c1cnn(-c2nc3cc(SCC4CCCCC4)c(Cl)cc3[nH]2)c1` [Example 165, 1-(6-Chloro-5-cyclohexylmethylsulfanyl-1H-benzoimidazol-2-yl)-1H-pyrazole-4-carboxylic Acid], the “Enzyme pIC50” value on human PHD2181-417 stood at 6.9. In the experiment on Hep-3B cells, the EPO secretion, % of control compound was found to be 27.3%.
The matching figures for `O=C(O)c1cnn(-c2nc3cc(SCCN4CCOCC4)c(Cl)cc3[nH]2)c1` [Example 166, 1-[6-Chloro-5-(2-morpholin-4-yl-ethylsulfanyl)-1H-benzoimidazol-2-yl]-1H-pyrazole-4-carboxylic Acid]: 7 and 15.1%.
`O=C(O)c1cnn(-c2nc3cc(SCc4ccc(Cl)c(Cl)c4)c(Cl)cc3[nH]2)c1` [Example 167, 1-[6-Chloro-5-(3,4-dichloro-benzylsulfanyl)-1H-benzoimidazol-2-yl]-1H-pyrazole-4-carboxylic Acid]: on human PHD2181-417, the “Enzyme pIC50” value is 6.4. In addition, in the experiment with Hep-3B cells, the EPO secretion, % of control compound turned out to be 25.8%.
In the case of `O=C(O)c1cnn(-c2nc3cc(SCc4c(Cl)cccc4Cl)c(Cl)cc3[nH]2)c1` [Example 168, 1-[6-Chloro-5-(2,6-dichloro-benzylsulfanyl)-1H-benzoimidazol-2-yl]-1H-pyrazole-4-carboxylic Acid], on human PHD2181-417, the “Enzyme pIC50” value was determined as 7.3. Moreover, in the experiment with Hep-3B cells, the EPO secretion, % of control compound is 50.1%.
The matching figures for `O=C(O)c1cnn(-c2nc3cc(S(=O)(=O)Cc4ccc(Cl)cc4)c(Cl)cc3[nH]2)c1` [Example 173, 1-[6-Chloro-5-(4-chloro-phenylmethanesulfonyl)-1H-benzoimidazol-2-yl]-1H-pyrazole-4-carboxylic Acid]: 7.8 and 60.4%.
Regarding `O=C(O)c1cnn(-c2nc3cc(S(=O)(=O)Cc4cccc(Cl)c4)c(Cl)cc3[nH]2)c1` [Example 174, 1-[6-Chloro-5-(3-chloro-phenylmethanesulfonyl)-1H-benzoimidazol-2-yl]-1H-pyrazole-4-carboxylic Acid], the “Enzyme pIC50” value on human PHD2181-417 amounted to 7.6. Moreover, the EPO secretion, % of control compound with Hep-3B cells is 40.9%.
The matching figures for `O=C(O)c1cnn(-c2nc3cc(S(=O)(=O)CC4CCCCC4)c(Cl)cc3[nH]2)c1` [Example 175, 1-(6-Chloro-5-cyclohexylmethanesulfonyl-1H-benzoimidazol-2-yl)-1H-pyrazole-4-carboxylic Acid]: 7.7 and 48.7%.
For the compound `O=C(O)c1cnn(-c2nc3cc(S(=O)(=O)Cc4ccc(Cl)c(Cl)c4)c(Cl)cc3[nH]2)c1` [Example 176, 1-[6-Chloro-5-(3,4-dichloro-phenylmethanesulfonyl)-1H-benzoimidazol-2-yl]-1H-pyrazole-4-carboxylic Acid], at human PHD2181-417, the “Enzyme pIC50” value was 7.6. In the experiment on Hep-3B cells, the EPO secretion, % of control compound turned out to be 44.2%.
Consider `O=C(O)c1cnn(-c2nc3cc(S(=O)(=O)Cc4c(Cl)cccc4Cl)c(Cl)cc3[nH]2)c1` [Example 177, 1-[6-Chloro-5-(2,6-dichloro-phenylmethanesulfonyl)-1H-benzoimidazol-2-yl]-1H-pyrazole-4-carboxylic Acid], for which the “Enzyme pIC50” value on human PHD2181-417 worked out at 7.5. Further, the EPO secretion, % of control compound in the experiment on Hep-3B cells came out at 66.6%.
The matching figures for `O=C(O)c1cnn(-c2nc3nc4ccccc4nc3[nH]2)c1` [Example 182, 1-(1H-Imidazo[4,5-b]quinoxalin-2-yl)-1H-pyrazole-4-carboxylic Acid]: 5.5 and 13.4%.
Regarding `O=C(O)c1cnn(-c2nc3nc4cc(Cl)c(Cl)cc4nc3[nH]2)c1` [Example 183, 1-(6,7-Dichloro-1H-imidazo[4,5-b]quinoxalin-2-yl)-1H-pyrazole-4-carboxylic Acid], on human PHD2181-417, the “Enzyme pIC50” value was found to be 6.4. The EPO secretion, % of control compound with Hep-3B cells came out at 3.3%.
The matching figures for `O=C(O)c1cnn(-c2nc3nccnc3[nH]2)c1` [Example 184, 1-(1H-Imidazo[4,5-b]pyrazin-2-yl)-1H-pyrazole-4-carboxylic Acid]: 5.9 and 8.3%.
In the case of `O=C(O)c1cnn(-c2nc3c(Cl)ncnc3[nH]2)c1` [Example 185, 1-(6-Chloro-9H-purin-8-yl)-1H-pyrazole-4-carboxylic Acid], the “Enzyme pIC50” value on human PHD2181-417 is 5.3. The EPO secretion, % of control compound in the experiment with Hep-3B cells came out at 11.7%.
For `O=C(O)c1cnn(-c2nc3cc(S(=O)(=O)Nc4ccccc4)c(Cl)cc3[nH]2)c1` [Example 186, 1-(6-Chloro-5-phenylsulfamoyl-1H-benzoimidazol-2-yl)-1H-pyrazole-4-carboxylic Acid], at human PHD2181-417, the “Enzyme pIC50” value is recorded as 7.4. Also, the EPO secretion, % of control compound in the experiment on Hep-3B cells came to 39.1%.
